{"source": "patent US20240335429A1", "about": "“MOLECULAR GLUE AND SALL4 DEGRADER” (National University of Singapore, priority 2021, published 2024)", "key": {"c-myc": {"test_system": "c-myc", "assay": "Immunoblot of c-myc (SALL4 downstream target) in SNU-398 cells", "type": "cell-based, human", "settings": "Homo sapiens; SNU-398 HCC cells, 24 h treatment; read-out: suppression of SALL4 downstream target c-myc, IC50", "protocol": "(§1) RIPA buffer containing freshly added protease inhibitors (2 mM PMSF) and protease inhibitor cocktail was used for cell lysis. The lysed cells were incubated for 10 min on ice and subsequently centrifuged at 4° C. for 10 min at 14,000 rpm. The protein concentrations of cell lysates were assessed using Bradford Assay as per manufacturer's instructions. The samples were denatured using 4× Sample buffer at 95° C. for 5 min. The samples were size resolved using polyacrylamide gel (8%) and Mini-PROTEAN Tetra Cell module. The size-resolved proteins were transferred onto PVDF via electroblotting using Mini Trans-Blot® module. The membrane was blocked using 5% BSA in TBST. The membrane was incubated with appropriate primary antibody (overnight) and secondary antibody (1 h). Immobilon Crescendo Western HRP substrate was used for signal development and images were acquired using darkroom development techniques."}, "SNU-182 cells": {"test_system": "SNU-182 cells", "assay": "CellTiter-Glo viability assay, SNU-182", "type": "cell-based", "settings": "Homo sapiens, 72 h", "protocol": "(§2) Cells were plated in RPMI culture media (40 μL) in 384-well white, flat-bottom plates (Corning) and incubated at 37° C. in a humidified atmosphere of 5% CO2 overnight. The numbers of cells per well were 1,500 for SNU-398 and SNU-182, 750 for SNU-387, SNU-449, SNU-475 and SNU-423, and 1,000 for H661 and H1299. After overnight incubation, 10 μL of drug (1% DMSO in RPMI) at designed concentrations were added to the cells. The cells were then incubated for 16, 24, 48, 72, or 96 h at 37° C. in a humidified atmosphere of 5% CO2 before CellTiter-Glo reagent (10 μL) was dispensed to the wells. The cells were incubated at room temperature for a minimum of 10 min. After that, luminescence readings were recorded by a Microplate Reader (PHERAstar or Tecan Infinite M200 Pro) according to the manufacturer's instruction for measuring the luminescence."}, "[1]": {"test_system": "SNU-387, SNU-449, SNU-475, and H1299 cells", "assay": "CellTiter-Glo viability assay, SALL4-low cell panel", "type": "cell-based, human", "settings": "72 h cell viability panel of HCC and lung cancer cell lines", "protocol": "as §2"}, "[2]": {"assay": "CellTiter-Glo viability assay, SALL4-low cell panel", "type": "cell-based, human", "settings": "human, SNU-387, SNU-449, SNU-475 and H1299 cells (SALL4-low); SALL4-low cells, highest dose 30 μM, 72 h; read-out: cells remained viable", "protocol": "as §2"}, "SALL4 (1-300aa) protein": {"target": "T1, SALL4 (1-300aa) protein (Homo sapiens, UniProt Q9UJQ4)", "T1 construct": "SALL4 (1-300aa) cloned into this vector was expressed with the N-terminal 6-His tags; His6 (pET His6 TEV LIC vector 2B-T, TEV site) (N); made in house; host or cells: E. coli BL21 (DE3)/pLysS", "T1 sequence (Q9UJQ4 1-300)": "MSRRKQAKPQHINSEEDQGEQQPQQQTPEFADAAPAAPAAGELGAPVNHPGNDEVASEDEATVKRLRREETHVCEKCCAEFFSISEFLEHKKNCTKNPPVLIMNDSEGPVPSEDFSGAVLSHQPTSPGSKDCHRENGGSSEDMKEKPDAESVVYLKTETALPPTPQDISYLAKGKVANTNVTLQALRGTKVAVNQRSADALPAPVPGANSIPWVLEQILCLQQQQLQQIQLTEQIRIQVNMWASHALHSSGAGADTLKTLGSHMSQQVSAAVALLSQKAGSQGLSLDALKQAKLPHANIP", "assay": "Thermal shift assay (TSA) with Sypro Orange", "type": "binding", "protocol": "A library of 50,000 small molecules from the Novartis Biomedical Research Institute (NIBR) was screened at 50 μM and 100 μM against 13.8 μM of purified SALL4 (1-300aa) protein in the buffer containing potassium phosphate (100 mM) and NaCl (100 mM) at pH 7. Screening assay was performed in 384-well thin wall white PCR plates using LightCyler® 480 Real-Time PCR System (Roche Applied Sciences). A 7-min run was started at 30° C. and ended at 90° C. Sypro Orange was used as the sensitive fluorescent dye for monitoring thermal protein denaturation. Hits were defined as compounds that can induce a change in protein melting points 3 times higher than the standard deviations of the apo-protein melting point from DMSO control.\nTo experimentally assess the stoichiometry of the binding between SALL4 (1-300aa) and QE-18-WG07, the inventors titrated 13.8 μM of purified recombinant SALL4 (1-300aa) protein with 12 increasing concentrations of QE-18-WG07 and evaluated the dose-response correlation in the ΔTm shift by following the protocol for TSA in Example 7."}, "IKZF1": {"target": "T2, IKZF1 (Homo sapiens, UniProt Q13422)", "T2 construct": "with immunoblots in SNU-398 HCC cells; endogenous in cells; host or cells: SNU-398 HCC cells", "T2 sequence (Q13422 whole entry)": "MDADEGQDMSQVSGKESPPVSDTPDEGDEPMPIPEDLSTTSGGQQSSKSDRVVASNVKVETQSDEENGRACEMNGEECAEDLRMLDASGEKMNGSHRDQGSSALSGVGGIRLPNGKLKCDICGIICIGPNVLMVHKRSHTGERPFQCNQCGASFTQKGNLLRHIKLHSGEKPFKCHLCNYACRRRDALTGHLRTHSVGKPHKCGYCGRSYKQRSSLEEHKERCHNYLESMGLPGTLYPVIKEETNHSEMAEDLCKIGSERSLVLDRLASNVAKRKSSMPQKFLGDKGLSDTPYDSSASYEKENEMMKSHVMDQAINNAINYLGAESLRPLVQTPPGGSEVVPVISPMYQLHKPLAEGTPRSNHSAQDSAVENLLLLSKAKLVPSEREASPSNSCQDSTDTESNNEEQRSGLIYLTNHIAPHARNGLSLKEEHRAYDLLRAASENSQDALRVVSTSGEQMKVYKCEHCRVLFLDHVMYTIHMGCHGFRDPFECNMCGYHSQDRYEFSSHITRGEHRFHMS", "assay": "Immunoblot of IKZF1 in SNU-398 HCC cells", "type": "cell-based", "settings": "SNU-398 cells", "protocol": "as §1"}, "[3]": {"settings": "QE-18-WG07 0.0061 μM, 30 min incubation"}, "[4]": {"settings": "QE-18-WG07 0.0122 μM, 30 min incubation"}, "[5]": {"settings": "QE-18-WG07 0.0488 μM, 30 min incubation"}, "[6]": {"settings": "QE-18-WG07 0.0977 μM, 30 min incubation"}, "[7]": {"settings": "QE-18-WG07 0.1953 μM, 30 min incubation"}, "[8]": {"settings": "QE-18-WG07 0.7813 μM, 30 min incubation"}, "[9]": {"settings": "QE-18-WG07 1.5625 μM, 30 min incubation"}, "[10]": {"settings": "QE-18-WG07 3.1250 μM, 30 min incubation"}, "[11]": {"settings": "QE-18-WG07 6.2500 μM, 30 min incubation"}, "[12]": {"settings": "QE-18-WG07 12.5000 μM, 30 min incubation"}, "[13]": {"settings": "QE-18-WG07 25.0000 μM, 30 min incubation"}, "[14]": {"settings": "QE-18-WG07 50.0000 μM, 30 min incubation"}}, "data": [{"smiles": "COc1ccccc1NC(=O)Nc1ccc([N+](=O)[O-])cc1O", "note": "[QE-18-WG07]", "values": [{"measurement": "IC50", "setting": "c-myc", "value": "~5.12", "unit": "µM"}, {"measurement": "Emax at 1 µM", "setting": "SNU-182 cells; achieved at 1 μM, read-out: maximum growth inhibition Emax", "value": "90 to 100", "unit": "%"}, {"measurement": "IC50", "setting": "SNU-182 cells; read-out: IC50 of cell viability", "value": 0.951, "unit": "µM"}, {"measurement": "selectivity of anti-proliferative effect, SALL4-high over SALL4-low cancer cells", "setting": "[1]", "value": "up to 58 fold"}, {"measurement": "viability at 72 h, 30 μM", "setting": "[2]", "value": "30 to 60", "unit": "%"}, {"measurement": "concentration at which ΔTm saturation occurs", "setting": "SALL4 (1-300aa) protein; 13.8 μM SALL4 (1-300aa), 30 min incubation", "value": "≥ 12.5", "unit": "µM"}, {"measurement": "SALL4 (1-300) Melting Temperature Shift (° C.) Rep 1", "setting": "SALL4 (1-300aa) protein; [3]", "value": "−0.357", "unit": "°C"}, {"measurement": "SALL4 (1-300) Melting Temperature Shift (° C.) Rep 2", "setting": "SALL4 (1-300aa) protein; [3]", "value": "−0.357", "unit": "°C"}, {"measurement": "SALL4 (1-300) Melting Temperature Shift (° C.) Rep 1", "setting": "SALL4 (1-300aa) protein; [4]", "value": "−0.267", "unit": "°C"}, {"measurement": "SALL4 (1-300) Melting Temperature Shift (° C.) Rep 2", "setting": "SALL4 (1-300aa) protein; [4]", "value": "−0.267", "unit": "°C"}, {"measurement": "SALL4 (1-300) Melting Temperature Shift (° C.) Rep 1", "setting": "SALL4 (1-300aa) protein; [5]", "value": "−0.077", "unit": "°C"}, {"measurement": "SALL4 (1-300) Melting Temperature Shift (° C.) Rep 2", "setting": "SALL4 (1-300aa) protein; [5]", "value": "−0.357", "unit": "°C"}, {"measurement": "SALL4 (1-300) Melting Temperature Shift (° C.) Rep 1", "setting": "SALL4 (1-300aa) protein; [6]", "value": "−0.357", "unit": "°C"}, {"measurement": "SALL4 (1-300) Melting Temperature Shift (° C.) Rep 2", "setting": "SALL4 (1-300aa) protein; [6]", "value": "−0.357", "unit": "°C"}, {"measurement": "SALL4 (1-300) Melting Temperature Shift (° C.) Rep 1", "setting": "SALL4 (1-300aa) protein; [7]", "value": "−0.267", "unit": "°C"}, {"measurement": "SALL4 (1-300) Melting Temperature Shift (° C.) Rep 2", "setting": "SALL4 (1-300aa) protein; [7]", "value": "−0.267", "unit": "°C"}, {"measurement": "SALL4 (1-300) Melting Temperature Shift (° C.) Rep 1", "setting": "SALL4 (1-300aa) protein; [8]", "value": "−0.167", "unit": "°C"}, {"measurement": "SALL4 (1-300) Melting Temperature Shift (° C.) Rep 2", "setting": "SALL4 (1-300aa) protein; [8]", "value": "−0.167", "unit": "°C"}, {"measurement": "SALL4 (1-300) Melting Temperature Shift (° C.) Rep 1", "setting": "SALL4 (1-300aa) protein; [9]", "value": 0.503, "unit": "°C"}, {"measurement": "SALL4 (1-300) Melting Temperature Shift (° C.) Rep 2", "setting": "SALL4 (1-300aa) protein; [9]", "value": 0.503, "unit": "°C"}, {"measurement": "SALL4 (1-300) Melting Temperature Shift (° C.) Rep 1", "setting": "SALL4 (1-300aa) protein; [10]", "value": 0.413, "unit": "°C"}, {"measurement": "SALL4 (1-300) Melting Temperature Shift (° C.) Rep 2", "setting": "SALL4 (1-300aa) protein; [10]", "value": 0.793, "unit": "°C"}, {"measurement": "SALL4 (1-300) Melting Temperature Shift (° C.) Rep 1", "setting": "SALL4 (1-300aa) protein; [11]", "value": 0.703, "unit": "°C"}, {"measurement": "SALL4 (1-300) Melting Temperature Shift (° C.) Rep 2", "setting": "SALL4 (1-300aa) protein; [11]", "value": 0.703, "unit": "°C"}, {"measurement": "SALL4 (1-300) Melting Temperature Shift (° C.) Rep 1", "setting": "SALL4 (1-300aa) protein; [12]", "value": 1.373, "unit": "°C"}, {"measurement": "SALL4 (1-300) Melting Temperature Shift (° C.) Rep 2", "setting": "SALL4 (1-300aa) protein; [12]", "value": 1.083, "unit": "°C"}, {"measurement": "SALL4 (1-300) Melting Temperature Shift (° C.) Rep 1", "setting": "SALL4 (1-300aa) protein; [13]", "value": 1.273, "unit": "°C"}, {"measurement": "SALL4 (1-300) Melting Temperature Shift (° C.) Rep 2", "setting": "SALL4 (1-300aa) protein; [13]", "value": 1.273, "unit": "°C"}, {"measurement": "SALL4 (1-300) Melting Temperature Shift (° C.) Rep 1", "setting": "SALL4 (1-300aa) protein; [14]", "value": 1.273, "unit": "°C"}, {"measurement": "SALL4 (1-300) Melting Temperature Shift (° C.) Rep 2", "setting": "SALL4 (1-300aa) protein; [14]", "value": 0.983, "unit": "°C"}, {"measurement": "ΔTm at 100 µM", "setting": "SALL4 (1-300aa) protein; SALL4(1-300) melting temperature shift, mean ± SD (n = 2), [compound] = 100 μM, 30 min", "value": "1.15 ± 0.01", "unit": "°C"}, {"measurement": "Thermal Shift Assay Type", "setting": "SALL4 (1-300aa) protein; [compound] = 100 μM, 30 min", "value": "Positive shifter"}, {"measurement": "degradation of IKZF1", "setting": "IKZF1", "value": "did not degrade"}]}]}
